The target of test [1] is 5-hydroxytryptamine receptor 5A (Homo sapiens, UniProt P47898). Put plainly: Counterscreen for agonists of OPRM1-OPRD1 heterodimerization: luminescence-based cell-based high throughput dose response assay to identify agonists of 5-hydroxytryptamine (serotonin) 5A receptor (HTR5A). [Related pubchem assays (depositor defined):AID504326, AID504355, AID504692, AID504904, AID504905]. In kind it is functional. (The purpose of a counterscreen is to sort out artefacts and off-target activity.)

For test [2], the target named is Delta-type opioid receptor (Homo sapiens, UniProt P41143). Put plainly: Counterscreen for agonists of heterodimerization of the mu 1 (OPRM1) and delta 1 (OPRD1) opioid receptors: Luminescence-based cell-based high throughput dose response assay to identify agonists of OPRD1 homodimerization. [Related pubchem assays (depositor defined):AID504326, AID504355, AID504692, AID504904, AID504905]. The test is classed as functional.

The target of test [3] is Mu-type opioid receptor (Homo sapiens, UniProt P35372). Put plainly: Counterscreen for agonists of heterodimerization of the mu 1 (OPRM1) and delta 1 (OPRD1) opioid receptors: Luminescence-based cell-based high throughput dose response assay to identify agonists of OPRM1 homodimerization. In kind it is functional.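 Note: U2OS cells expressing OPRM1 and beta-arrestin as split beta-galactosidase partners.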
Test [4] deals with T1, Short transient receptor potential channel 4 (Mus musculus, UniProt Q9QUQ5).
T1 sequence (Q9QUQ5 whole entry): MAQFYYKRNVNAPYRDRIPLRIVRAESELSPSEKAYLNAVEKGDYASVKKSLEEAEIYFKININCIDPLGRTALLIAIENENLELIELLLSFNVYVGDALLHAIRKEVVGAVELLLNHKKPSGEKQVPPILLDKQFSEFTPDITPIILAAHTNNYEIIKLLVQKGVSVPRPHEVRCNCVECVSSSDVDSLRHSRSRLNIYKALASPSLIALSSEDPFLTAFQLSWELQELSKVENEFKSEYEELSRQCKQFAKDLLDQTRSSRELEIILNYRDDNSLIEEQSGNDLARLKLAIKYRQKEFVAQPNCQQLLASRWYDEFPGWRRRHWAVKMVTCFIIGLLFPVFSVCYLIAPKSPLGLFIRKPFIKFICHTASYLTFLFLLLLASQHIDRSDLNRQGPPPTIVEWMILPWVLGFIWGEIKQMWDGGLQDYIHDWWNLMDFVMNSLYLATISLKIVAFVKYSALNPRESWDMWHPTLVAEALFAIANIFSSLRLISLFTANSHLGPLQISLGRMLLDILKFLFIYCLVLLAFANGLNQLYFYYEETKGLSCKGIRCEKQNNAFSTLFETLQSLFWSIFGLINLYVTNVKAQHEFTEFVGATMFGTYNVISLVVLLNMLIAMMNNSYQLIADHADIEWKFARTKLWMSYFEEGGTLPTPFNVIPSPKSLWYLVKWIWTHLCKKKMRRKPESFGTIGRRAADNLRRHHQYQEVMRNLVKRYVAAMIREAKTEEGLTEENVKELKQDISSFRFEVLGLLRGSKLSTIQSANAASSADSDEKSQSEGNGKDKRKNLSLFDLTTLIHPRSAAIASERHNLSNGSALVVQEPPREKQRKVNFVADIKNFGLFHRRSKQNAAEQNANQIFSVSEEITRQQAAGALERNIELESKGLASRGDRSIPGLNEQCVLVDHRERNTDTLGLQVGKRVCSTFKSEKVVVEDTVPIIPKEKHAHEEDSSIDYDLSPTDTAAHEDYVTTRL
Put plainly: calcium entry via TRPC4 opening agents – cell-based, HEK293 TRPC4/mu-opioid, Fluo-4 calcium, dose response (AID 434937). In kind it is functional.

In test [5] the test system is HEK293. Put plainly: cells. The test is classed as functional, cell-based. The conditions noted are these: Homo sapiens.
For test [6], the target named is T2, Nuclear receptor subfamily 0 group B member 1 (Homo sapiens, UniProt P51843).
T2 sequence (P51843 whole entry): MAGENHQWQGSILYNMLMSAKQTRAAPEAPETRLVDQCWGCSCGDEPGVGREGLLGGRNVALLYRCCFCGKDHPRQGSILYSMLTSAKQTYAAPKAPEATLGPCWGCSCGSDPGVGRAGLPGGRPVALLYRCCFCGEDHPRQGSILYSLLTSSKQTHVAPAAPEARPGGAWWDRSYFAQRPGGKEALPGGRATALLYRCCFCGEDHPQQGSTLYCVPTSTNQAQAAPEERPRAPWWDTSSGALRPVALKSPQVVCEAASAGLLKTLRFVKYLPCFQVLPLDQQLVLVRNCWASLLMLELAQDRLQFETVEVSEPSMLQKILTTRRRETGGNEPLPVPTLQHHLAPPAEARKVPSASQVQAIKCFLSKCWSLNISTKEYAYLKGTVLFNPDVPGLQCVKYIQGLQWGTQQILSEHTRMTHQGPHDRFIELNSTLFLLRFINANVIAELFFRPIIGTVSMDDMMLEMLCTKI
Briefly: Luminescence-based cell-based high throughput dose response assay for inhibitors of the orphan nuclear receptor subfamily 0, group B, member 1 (DAX1; NR0B1). [Related pubchem assays (depositor defined):AID504766, AID504790]. In kind it is functional.

Test [7] addresses Serine/threonine-protein phosphatase (Candida dubliniensis (strain CD36 / CBS 7987 / NCPF 3949 / NRRLY-17841) (Yeast), UniProt B9W6M3). Put plainly: blockers of CaCl2-induced CDRE-lacZ signaling – S. cerevisiae, luminescence, secondary, dose response (AID 2388).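 Note: yeast reporter cells carrying a calcineurin-responsive lacZ construct stimulated with calcium chloride; luminescent beta-galactosidase reporter signal in whole cells rather than isolated phosphatase activity; potency for inhibition where a drop in reporter signal means calcineurin blockade.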 The test is classed as functional, cell-based.
Test [8] addresses ATP-dependent molecular chaperone HSP82 (Candida albicans (strain WO-1) (Yeast), UniProt C4YTQ8). Put plainly: steroid-induced GRE reporter decrease in yeast – S. cerevisiae, luminescence, Hsp90 inhibitor project, dose response (AID 2400).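 Note: beta-galactosidase luminescence from glucocorticoid response element reporter as proxy for Hsp90 function; inhibitor potency where signal loss means Hsp90 inhibition.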 The test is classed as functional, cell-based.
Test [9] is described as follows: NIH-3T3 fibroblast cytotoxicity, dose response, cytotoxicity control, cell-based, fluorescence, Alamar Blue, secondary assay (AID 2327).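 Note: NIH-3T3 mouse fibroblasts cultured with fluconazole at 8 µg/mL.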 The test is classed as functional.
A short description of test [10]: fluconazole-exposed Candida albicans growth modulators – fluorescence, retest, confirmation (AID 2467). In kind it is functional, cell-based.
Test [11] has as its target T3, Mucolipin-3 (Homo sapiens, UniProt Q8TDD5).
T3 sequence (Q8TDD5 whole entry): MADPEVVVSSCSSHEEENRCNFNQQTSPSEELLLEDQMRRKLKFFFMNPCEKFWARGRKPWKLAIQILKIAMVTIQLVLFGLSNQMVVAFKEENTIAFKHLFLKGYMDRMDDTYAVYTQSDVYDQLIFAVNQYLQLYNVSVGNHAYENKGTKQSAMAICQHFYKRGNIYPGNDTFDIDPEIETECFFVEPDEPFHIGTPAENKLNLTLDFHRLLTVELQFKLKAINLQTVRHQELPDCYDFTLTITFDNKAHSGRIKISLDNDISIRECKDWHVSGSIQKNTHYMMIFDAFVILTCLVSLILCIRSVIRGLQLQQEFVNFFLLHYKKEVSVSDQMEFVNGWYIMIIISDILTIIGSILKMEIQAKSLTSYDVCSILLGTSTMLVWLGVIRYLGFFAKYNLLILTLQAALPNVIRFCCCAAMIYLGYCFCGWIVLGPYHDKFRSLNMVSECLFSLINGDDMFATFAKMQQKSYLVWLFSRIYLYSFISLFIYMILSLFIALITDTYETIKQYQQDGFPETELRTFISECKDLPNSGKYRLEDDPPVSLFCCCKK
Briefly: Dose response cell-based high-throughput screening assay for agonists of the transient receptor potential channel ML3 (TRPML3). [Related pubchem assays: 1526, 1424, 1448 ]. The test is classed as functional.

Test [12] has as its target Ion channel NompC (Danio rerio, UniProt Q7T1G6). Briefly: Fluorescence counterscreen assay for TRPML3 agonists: dose response cell-based high-throughput screening assay to identify agonists of the transient receptor potential channel N1 (TRPN1). [Related pubchem assays: 1526, 1424, 1448 ]. The test is classed as functional.
In test [13] the test system is BJ. Put plainly: growth inhibition of engineered Ras-driven BJ cells – cell-based, alamar blue fluorescence, cherrypicked samples, dose response (AID 2631).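 Note: confirmatory dose-response assay in RAS-dependent BJ fibroblasts engineered with TERT, LT and ST, with cytotoxicity read by fluorescence.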 The test is classed as functional. The conditions noted are these: Homo sapiens.
Test [14] can be described thus: luciferase reporter signal suppression in cells – H4 neuroglioma cells, luminescence, dose response (AID 1990). The test is classed as functional, cell-based.
Test [15] in a line: alpha-synuclein stem-loop luciferase translation blockers – H4 neuroglioma cells, luminescence, confirmation (AID 1988). In kind it is functional, cell-based.
A short description of test [16]: Luminescence Cell-Based Dose Response HTS to Identify Inhibitors of 5'UTR Stem-Loop Driven Prion Protein mRNA Translation in H4 Neuroglioblastoma Cells. [Related pubchem assays: 1827 (Project Summary), 1813 (Primary HTS)]. In kind it is functional.
For test [17], the target named is T4, CAAX prenyl protease 2 (Saccharomyces cerevisiae S288c, UniProt Q03530).
T4 sequence (Q03530 whole entry): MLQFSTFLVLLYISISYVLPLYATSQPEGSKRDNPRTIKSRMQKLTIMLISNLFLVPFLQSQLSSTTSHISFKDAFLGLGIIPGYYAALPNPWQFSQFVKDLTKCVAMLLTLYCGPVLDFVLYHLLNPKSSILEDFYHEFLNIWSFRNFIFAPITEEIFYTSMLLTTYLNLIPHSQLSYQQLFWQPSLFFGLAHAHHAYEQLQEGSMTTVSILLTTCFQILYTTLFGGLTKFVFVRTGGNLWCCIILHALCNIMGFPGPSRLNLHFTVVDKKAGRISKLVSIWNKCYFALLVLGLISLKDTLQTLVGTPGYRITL
The test is classed as biochemical.

Test [18] concerns the target CAAX prenyl protease 1 (Saccharomyces cerevisiae S288c, UniProt P47154). Put plainly: yeast CAAX protease Ste24 inhibition – biochemical, S. cerevisiae, plate reader, cherry-pick, dose response (AID 488815).
The target in test [19] is FAD-linked sulfhydryl oxidase ALR (Homo sapiens, UniProt P55789). Briefly: ALR-catalysed DTT oxidation blockers – biochemical, H2O2 detection, luminescence, cherry-pick, dose response (AID 493248).
The target in test [20] is CAAX prenyl protease 2 (Homo sapiens, UniProt Q9Y256). Briefly: inhibition of Ras-converting CAAX protease Rce1 – biochemical, yeast membranes, quenched-peptide fluorescence, cherry-pick, dose response (AID 588849).
Test [21] concerns the target Beta-2 adrenergic receptor (Homo sapiens, UniProt P07550). Put plainly: ADRB2 activation measured by internalization – cell-based, FAP fluorogen, flow cytometry, cherry pick 1, dose response (AID 588763). The test is classed as functional. A general note: Flow cytometry measures light scatter and fluorescence of single cells or particles in a stream.
Test [22] is described as follows: Trypanosoma cruzi growth suppression in host cells – NIH3T3 host cells, beta-gal luminescence, confirmation (AID 2044).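 Note: intracellular parasites grown in NIH/3T3 mouse fibroblasts as host cells; luminescent beta-galactosidase reporter signal from transgenic T. cruzi replicating inside host cells; inhibitors lower the luminescence signal.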 In kind it is functional, cell-based.
Test [23] is described as follows: NIH3T3 cell viability loss – ATP luminescence, mouse fibroblasts, counter-screen, dose response (AID 2010).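 Note: cells exposed to compound for about 90 hours before reading.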 In kind it is functional, cell-based.
The test system of test [24] is Escherichia coli. Briefly: microbe, parasite or virus in culture.
The subject of test [25] is Escherichia coli. Briefly: microbe, parasite or virus in culture. The source holds these as a separate data set.

Broadly, the EC50 is the concentration needed to bring the measured effect to its halfway point. The term IC50 denotes the concentration at which inhibition is half-maximal. Usually AC50 stands for the concentration giving half of the maximal activity seen.

Active and inactive are the calls of the source.

Sequence of 5-hydroxytryptamine receptor 5A (P47898 whole entry): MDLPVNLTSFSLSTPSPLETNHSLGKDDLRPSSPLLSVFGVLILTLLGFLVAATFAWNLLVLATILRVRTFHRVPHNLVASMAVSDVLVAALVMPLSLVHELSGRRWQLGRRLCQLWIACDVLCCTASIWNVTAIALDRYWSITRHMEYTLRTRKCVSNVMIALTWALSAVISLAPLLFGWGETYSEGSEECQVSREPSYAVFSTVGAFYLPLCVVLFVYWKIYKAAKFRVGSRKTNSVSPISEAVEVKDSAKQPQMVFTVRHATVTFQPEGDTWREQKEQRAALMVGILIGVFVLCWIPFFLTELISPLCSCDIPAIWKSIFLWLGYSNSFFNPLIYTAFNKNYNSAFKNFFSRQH
Sequence of Beta-2 adrenergic receptor (P07550 whole entry): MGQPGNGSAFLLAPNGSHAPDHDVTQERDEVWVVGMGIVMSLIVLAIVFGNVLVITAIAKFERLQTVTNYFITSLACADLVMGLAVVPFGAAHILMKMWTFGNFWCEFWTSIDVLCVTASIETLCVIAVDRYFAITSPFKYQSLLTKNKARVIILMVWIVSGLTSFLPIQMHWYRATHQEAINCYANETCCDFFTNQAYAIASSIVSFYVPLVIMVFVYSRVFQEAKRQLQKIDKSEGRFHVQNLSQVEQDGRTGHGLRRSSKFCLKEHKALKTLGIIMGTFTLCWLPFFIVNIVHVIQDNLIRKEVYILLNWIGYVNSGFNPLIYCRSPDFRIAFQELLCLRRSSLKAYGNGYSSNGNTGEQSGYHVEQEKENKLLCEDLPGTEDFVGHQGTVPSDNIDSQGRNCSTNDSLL
Sequence of Delta-type opioid receptor (P41143 whole entry): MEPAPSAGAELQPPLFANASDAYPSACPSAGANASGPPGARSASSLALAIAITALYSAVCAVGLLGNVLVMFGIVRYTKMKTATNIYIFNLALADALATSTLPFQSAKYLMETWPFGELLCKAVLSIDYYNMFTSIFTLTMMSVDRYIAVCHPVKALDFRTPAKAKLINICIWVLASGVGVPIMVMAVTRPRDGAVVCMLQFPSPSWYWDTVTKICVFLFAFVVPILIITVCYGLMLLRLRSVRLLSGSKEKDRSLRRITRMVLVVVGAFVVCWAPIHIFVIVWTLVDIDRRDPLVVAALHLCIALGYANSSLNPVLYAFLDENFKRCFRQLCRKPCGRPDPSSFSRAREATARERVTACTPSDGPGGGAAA
Sequence of Mu-type opioid receptor (P35372 whole entry): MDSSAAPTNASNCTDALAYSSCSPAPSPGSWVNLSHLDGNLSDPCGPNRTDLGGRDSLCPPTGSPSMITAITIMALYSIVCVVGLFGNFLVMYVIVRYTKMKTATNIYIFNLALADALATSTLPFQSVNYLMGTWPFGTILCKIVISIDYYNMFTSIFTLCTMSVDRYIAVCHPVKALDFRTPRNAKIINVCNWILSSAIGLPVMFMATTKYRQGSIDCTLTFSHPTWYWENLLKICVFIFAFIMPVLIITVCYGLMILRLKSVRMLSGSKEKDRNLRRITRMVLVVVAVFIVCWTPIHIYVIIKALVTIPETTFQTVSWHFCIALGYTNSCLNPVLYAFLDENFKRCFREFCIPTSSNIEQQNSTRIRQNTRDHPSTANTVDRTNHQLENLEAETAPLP
Sequence of Serine/threonine-protein phosphatase (B9W6M3 whole entry): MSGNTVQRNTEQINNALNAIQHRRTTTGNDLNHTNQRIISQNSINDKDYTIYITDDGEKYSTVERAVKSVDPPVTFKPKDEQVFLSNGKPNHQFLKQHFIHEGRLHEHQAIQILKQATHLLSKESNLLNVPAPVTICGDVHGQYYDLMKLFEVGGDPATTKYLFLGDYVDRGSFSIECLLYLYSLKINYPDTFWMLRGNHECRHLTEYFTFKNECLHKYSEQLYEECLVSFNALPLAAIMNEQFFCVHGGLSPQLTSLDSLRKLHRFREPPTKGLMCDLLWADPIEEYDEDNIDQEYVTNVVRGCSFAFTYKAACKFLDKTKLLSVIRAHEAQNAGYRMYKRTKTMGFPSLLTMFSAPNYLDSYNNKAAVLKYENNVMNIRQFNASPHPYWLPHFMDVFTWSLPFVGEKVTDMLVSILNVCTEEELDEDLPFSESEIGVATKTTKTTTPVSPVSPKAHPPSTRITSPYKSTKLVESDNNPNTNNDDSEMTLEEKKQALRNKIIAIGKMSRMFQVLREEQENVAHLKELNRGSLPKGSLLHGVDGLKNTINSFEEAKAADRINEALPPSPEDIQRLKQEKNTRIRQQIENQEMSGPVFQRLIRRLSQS
Sequence of CAAX prenyl protease 2 (Homo sapiens, UniProt Q9Y256) (Q9Y256 whole entry): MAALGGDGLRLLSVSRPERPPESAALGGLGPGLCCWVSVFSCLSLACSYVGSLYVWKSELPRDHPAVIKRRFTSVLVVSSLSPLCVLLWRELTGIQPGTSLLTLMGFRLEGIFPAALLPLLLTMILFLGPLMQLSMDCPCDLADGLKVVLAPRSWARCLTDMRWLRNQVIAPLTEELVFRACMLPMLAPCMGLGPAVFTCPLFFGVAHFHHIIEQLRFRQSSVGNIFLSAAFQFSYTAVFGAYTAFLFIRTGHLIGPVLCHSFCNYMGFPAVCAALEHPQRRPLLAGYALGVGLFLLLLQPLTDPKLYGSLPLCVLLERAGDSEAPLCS
Sequence of Ion channel NompC (Q7T1G6 whole entry): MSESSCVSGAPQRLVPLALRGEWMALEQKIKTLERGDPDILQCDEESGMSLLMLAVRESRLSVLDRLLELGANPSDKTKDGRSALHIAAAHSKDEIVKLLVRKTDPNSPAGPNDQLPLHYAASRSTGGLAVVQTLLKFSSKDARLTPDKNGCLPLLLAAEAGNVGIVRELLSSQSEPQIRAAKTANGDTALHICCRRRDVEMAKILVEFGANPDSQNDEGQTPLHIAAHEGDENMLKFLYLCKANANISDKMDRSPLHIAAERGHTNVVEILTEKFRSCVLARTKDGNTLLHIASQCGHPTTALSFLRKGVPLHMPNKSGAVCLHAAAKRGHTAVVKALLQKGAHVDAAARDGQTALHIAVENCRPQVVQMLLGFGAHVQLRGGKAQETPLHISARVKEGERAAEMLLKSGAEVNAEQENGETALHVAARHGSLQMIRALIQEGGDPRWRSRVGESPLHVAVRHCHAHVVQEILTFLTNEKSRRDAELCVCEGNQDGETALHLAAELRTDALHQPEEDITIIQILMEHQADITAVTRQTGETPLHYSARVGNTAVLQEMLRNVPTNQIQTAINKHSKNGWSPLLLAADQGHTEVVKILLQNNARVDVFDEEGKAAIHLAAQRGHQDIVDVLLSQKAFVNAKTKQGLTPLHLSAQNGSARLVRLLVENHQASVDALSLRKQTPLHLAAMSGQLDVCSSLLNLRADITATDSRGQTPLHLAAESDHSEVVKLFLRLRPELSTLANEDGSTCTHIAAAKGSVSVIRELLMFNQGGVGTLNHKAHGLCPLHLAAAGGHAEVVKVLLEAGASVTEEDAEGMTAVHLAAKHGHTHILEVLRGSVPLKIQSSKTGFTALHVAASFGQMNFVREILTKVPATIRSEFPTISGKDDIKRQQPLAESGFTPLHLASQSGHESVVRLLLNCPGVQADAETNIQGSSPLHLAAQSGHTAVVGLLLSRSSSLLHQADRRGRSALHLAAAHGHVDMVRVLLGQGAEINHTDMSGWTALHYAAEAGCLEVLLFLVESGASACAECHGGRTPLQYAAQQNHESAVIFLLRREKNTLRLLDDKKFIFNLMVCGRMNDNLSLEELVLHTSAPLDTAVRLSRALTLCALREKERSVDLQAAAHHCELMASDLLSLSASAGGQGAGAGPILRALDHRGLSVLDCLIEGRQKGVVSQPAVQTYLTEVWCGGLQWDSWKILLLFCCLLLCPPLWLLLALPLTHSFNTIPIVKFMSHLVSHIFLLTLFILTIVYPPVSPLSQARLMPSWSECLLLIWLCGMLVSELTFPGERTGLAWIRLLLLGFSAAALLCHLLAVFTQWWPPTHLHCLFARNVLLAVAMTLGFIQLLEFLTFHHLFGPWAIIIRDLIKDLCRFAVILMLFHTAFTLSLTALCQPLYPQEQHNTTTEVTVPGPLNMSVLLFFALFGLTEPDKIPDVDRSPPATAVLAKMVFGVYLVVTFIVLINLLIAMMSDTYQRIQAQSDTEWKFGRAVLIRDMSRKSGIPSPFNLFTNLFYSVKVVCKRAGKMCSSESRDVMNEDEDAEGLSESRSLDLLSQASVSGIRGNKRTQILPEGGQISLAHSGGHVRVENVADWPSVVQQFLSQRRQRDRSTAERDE
Sequence of CAAX prenyl protease 1 (P47154 whole entry): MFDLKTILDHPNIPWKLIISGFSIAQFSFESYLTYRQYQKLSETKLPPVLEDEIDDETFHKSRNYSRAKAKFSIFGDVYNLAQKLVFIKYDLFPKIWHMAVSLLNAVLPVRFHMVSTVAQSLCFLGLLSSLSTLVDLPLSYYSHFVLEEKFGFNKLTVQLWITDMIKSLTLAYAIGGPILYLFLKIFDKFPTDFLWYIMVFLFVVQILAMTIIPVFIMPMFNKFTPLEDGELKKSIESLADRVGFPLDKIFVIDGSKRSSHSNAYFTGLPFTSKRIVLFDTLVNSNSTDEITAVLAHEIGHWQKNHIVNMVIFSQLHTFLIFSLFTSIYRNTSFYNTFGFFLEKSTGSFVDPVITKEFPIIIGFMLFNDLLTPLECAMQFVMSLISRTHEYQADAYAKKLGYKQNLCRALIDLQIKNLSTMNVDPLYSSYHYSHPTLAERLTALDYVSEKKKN
Sequence of FAD-linked sulfhydryl oxidase ALR (P55789 whole entry): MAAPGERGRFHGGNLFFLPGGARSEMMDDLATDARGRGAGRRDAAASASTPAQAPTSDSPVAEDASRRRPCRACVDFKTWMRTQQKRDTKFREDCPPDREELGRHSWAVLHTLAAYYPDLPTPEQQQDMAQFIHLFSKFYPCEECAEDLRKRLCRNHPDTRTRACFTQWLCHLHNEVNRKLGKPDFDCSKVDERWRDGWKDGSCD

As to `CCOC(=O)c1c(C)[nH]c(C(=O)OCC(O)=C(C#N)c2nc3ccccc3[nH]2)c1C`, the EC50 in test [1], in test [2] and in test [3] was > 92.5 µM (inactive) each time.

In the case of `COCC1CCN(Cc2cn(-c3ccccc3F)nc2-c2cc(C)sc2C)CC1`, the EC50 in test [1] is > 92.5 µM (inactive); in [4], 1.88 µM (active); in test [2] it was > 92.5 µM (inactive); in test [3] it was > 92.5 µM (inactive).

With `Clc1ccccc1Nc1nc(-c2cccnc2)cs1`, the IC50 in test [5] and in test [6] was > 67.5 µM (inactive) throughout.

For the compound `Cc1ccc(S(=O)(=O)N(C)c2ccc(OCC(=O)Nc3nnc(C4CC4)s3)cc2)cc1`, the EC50 was > 180 µM (inactive) in test [7]; > 150 µM (inactive) in test [8]; > 150 µM (inactive) in test [9]; 3.05 µM (active) in test [10]; 4.38 µM (active) in [11]; > 29.9 µM (not active) in [12].

In the case of `COc1cccc(Cn2c(-c3nonc3N)nc3ccccc32)c1`, the EC50 in [13] is 0.455 µM (active); in [14], 9.54 µM (active); in test [15], 2.69 µM (active); in [16] it was 24.7 µM (active).

With `COc1ccc(/C=N/NC(=O)c2[nH]c3ccc(C)cc3c2-c2ccccc2)c(C(=O)O)c1OC`, the AC50 was 5.21 µM (active) in test [17], 1.76 µM (active) in test [18], 3.71 µM (active) in [19] and 3.14 µM (active) in test [20].

With `COc1cc(C(=O)NC2CCN(C)CC2)ccc1Nc1ncc2c(n1)N(Cc1ccccc1)CCC(=O)N2C`, the IC50 in test [5] and in [6] was > 67.5 µM (inactive) in each case.

With `Cc1cc(Cl)c2oc(C(=O)N3CCN(c4ccncc4)CC3)c(C)c2c1`, the EC50 in test [21] is 86.2 µM (inactive); in [22] it was 1.28 µM (active); in [23], 7.17 µM (active).

Consider `Cc1nc(NS(=O)(=O)c2ccccc2)sc1NC(=O)Nc1ccc(Cl)cc1`, for which the AC50 was > 380 µM (inactive) in [24] and 27 µM (active) in test [25].

For the compound `NC(=O)CC(NC(=O)c1ccccc1)c1ccc(NCCCN2CCCC2=O)c([N+](=O)[O-])c1` (configuration not stated), in [21], the EC50 was 1.4 µM (active).

Take `O=C1CN2C(=Nc3ccc(Br)cc3C2c2ccccc2)CCN1` (configuration not stated): the AC50 in test [24] is 81.5 µM (active).

The values are drawn from ChEMBL document CHEMBL1201862, “PubChem BioAssay data set” (2004).
